In patent US20220259235A1, “EGFR Inhibitor, Composition, and Preparation Method Therefor” (BETTA PHARMACEUTICALS CO., LTD, priority 2019, published 2022):

How the values were obtained:
EGFR Δ19del/T790M/C797S = EGFR Δ19del/T790M/C797S (Homo sapiens, UniProt P00533, T790M/C797S, form not given); assay: EGFR Δ19del/T790M/C797S kinase test (mobility shift, Caliper EZ Reader); format: biochemical; settings: kinase enzymatic activity, numeric values
Procedure: Mobility variation analysis was performed to determine the affinity of the compound for EGFRΔ19del/T790M/C797S. The enzymatic reaction scheme is as follows:
1. Prepare 1* kinase buffer as follows:
2. Preparation of compound concentration gradient: The test compound was tested with an initial concentration of 3000 nM or 100 nM, diluted in a 384 source plate to a 100% DMSO solution with 100-fold final concentration, and the compound is 3-fold diluted with Precision to 10 concentrations. A dispenser Echo 550 was used to transfer 250 nL 100-fold final concentration of the compound to the target plate OptiPlate-384F.
3. Prepare 2.5-fold final concentration of kinase solution with 1×Kinase buffer;
4. Add 10 μL of 2.5-fold final concentration of kinase solution to the compound well and the positive control well; add 10 μL of 1×Kinase buffer to the negative control well.
5. Centrifuge at 1000 rpm for 30 seconds, shake the reaction plate for well mixation, and then incubate at room temperature for 10 minutes.
6. Prepare a mixture of ATP and Kinase substrate at 5/3-fold final concentration with 1×Kinase buffer.
7. Add 15 μL mixture of 5/3-fold final concentration of ATP and substrate to start reaction.
8. Centrifuge the 384-well plate at 1000 rpm for 30 seconds, shake it well and then incubate it at room temperature for corresponding time.
9. Add 30 μL of stop detection solution to stop the kinase reaction, centrifuge at 1000 rpm for 30 seconds, shake it well.
10. Read conversion rate with Caliper EZ Reader.
% Inhibition=((Conversion%_max−Conversion%_sample)/(Conversion%_max−Conversion%_min))*100
Wherein: Conversion%_sample is the sample conversion rate reading; Conversion%_min: Mean value of negative control wells, representing the conversion rate reading of wells without enzymatic activity; Conversion%_max: Mean value of positive control wells, representing the conversion rate reading of wells without compound inhibition.
The dose-effect curve was fitted with concentration log value as X-axis and percentage inhibition rate as Y-axis. Log (inhibitor) vs. Response—Variable Slope of GraphPad Prism 5 was used to fit the dose-effect curve to obtain IC50 value of enzymatic activity for each compound.
The calculation formula is as Y=Bottom (Top−Bottom)/(1+10^((LogIC50−X)*HillSlope)).
As illustrated in examples, IC50 value is within the following range for the compound of the present invention: “A” represents “IC50≤1nM”; “B” represents “1 nM<IC50≤100nM”.

Ba/F3-L858R/T790M/C797S = Ba/F3-L858R/T790M/C797S (Homo sapiens, UniProt P00533, T790M/C797S/L858R, cells depend on it); assay: Ba/F3-L858R/T790M/C797S cell proliferation assay (CellTiter Glo, 72 h); format: cell-based; settings: CTG, numeric values, read-out: BaF3 L858R/T790M/C797S IC50
Sequence of Ba/F3-L858R/T790M/C797S (P00533 whole entry T790M/C797S/L858R): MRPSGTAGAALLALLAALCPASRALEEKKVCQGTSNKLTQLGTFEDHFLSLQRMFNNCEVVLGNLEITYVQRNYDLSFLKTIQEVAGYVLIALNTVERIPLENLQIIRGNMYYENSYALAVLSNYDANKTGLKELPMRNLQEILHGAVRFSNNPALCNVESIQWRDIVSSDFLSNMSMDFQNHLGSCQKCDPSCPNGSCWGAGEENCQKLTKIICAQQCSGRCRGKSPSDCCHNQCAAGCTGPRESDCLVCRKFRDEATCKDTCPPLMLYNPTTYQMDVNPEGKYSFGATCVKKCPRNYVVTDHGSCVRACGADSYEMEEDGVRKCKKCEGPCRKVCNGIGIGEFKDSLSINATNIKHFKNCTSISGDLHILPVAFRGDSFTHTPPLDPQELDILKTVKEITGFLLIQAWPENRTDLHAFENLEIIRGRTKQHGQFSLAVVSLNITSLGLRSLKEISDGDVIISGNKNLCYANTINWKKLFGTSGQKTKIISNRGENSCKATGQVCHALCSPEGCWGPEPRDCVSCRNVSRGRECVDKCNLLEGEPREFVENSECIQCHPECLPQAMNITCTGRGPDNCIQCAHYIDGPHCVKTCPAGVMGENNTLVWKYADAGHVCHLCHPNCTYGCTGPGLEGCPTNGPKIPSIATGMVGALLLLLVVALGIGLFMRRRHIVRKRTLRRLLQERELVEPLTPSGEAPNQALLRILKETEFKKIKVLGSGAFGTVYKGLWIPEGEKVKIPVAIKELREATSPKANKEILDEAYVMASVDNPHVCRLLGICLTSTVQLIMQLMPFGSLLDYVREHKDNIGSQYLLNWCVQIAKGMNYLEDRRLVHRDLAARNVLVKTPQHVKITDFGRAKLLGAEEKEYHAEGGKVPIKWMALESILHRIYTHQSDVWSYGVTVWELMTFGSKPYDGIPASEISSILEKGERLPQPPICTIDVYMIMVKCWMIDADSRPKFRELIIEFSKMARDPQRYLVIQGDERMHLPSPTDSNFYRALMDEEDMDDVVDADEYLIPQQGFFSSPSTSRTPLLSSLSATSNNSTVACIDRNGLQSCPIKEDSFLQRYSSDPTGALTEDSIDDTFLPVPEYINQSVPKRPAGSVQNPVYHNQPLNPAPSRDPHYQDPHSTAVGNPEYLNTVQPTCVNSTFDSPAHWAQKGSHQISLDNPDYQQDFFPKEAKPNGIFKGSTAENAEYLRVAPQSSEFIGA
Procedure: (§1) Cell line: Ba/F3 cells with stable overexpression of Δ19del/T790M/C797S or L858R/T790M/C797S mutant genes, named Ba/F3-Δ19del/T790M/C797S and Ba/F3-L858R/T790M/C797S, and A431 EGFR wild-type cell line.
(§2) RPMI 1640 and 10% FBS and 1% PS; _EM, 10% PBS and 1% PS
(§3) a) Dilute the test compound (20 mM stock solution) to 10 mM with 100% DMSO as the starting concentration, and then serially dilute 3 times with a “9+0” concentration in 96-well dilution plate (Cat #P-05525, Labcyte);
(§4) b) Dilute compound solution thereof to 1:100 in medium to prepare 10-fold working solution;
(§5) a) Centrifuge the growth cells in logarithmic phase at 1000 rpm for 5 minutes, resuspend the cells in culture medium, and then count the cells;
(§6) b) Inoculate the cells into a 96-well cell culture plate with a density of 2000 cells/well;
(§7) a) The compound prepared in Step 2 was added to a cell plate with 15 μL per well at final concentrations of 1000, 333, 111.1, 37, 12.3, 4.1, 1.4, 0.5, 0.2, and 0 nM. The final concentration of DMSO was 0.1%. The blank control well is with medium (0.1% DMSO).
(§8) b) Incubate cells in an incubatorother 72 hours;
(§9) a) Take out the 96-well cell culture plate and add 50 μl CTG reagent (CellTiter Glo kit, promega, Cat #G7573);
(§10) b) Shake the plate for 2 minutes and let cool at room temperature for 10 minutes,
(§11) c) Read luminous signal value with Perkin Elmer reader.
(§12) Analysis of Experimental Data
(§13) The data were analyzed by GraphPad Prism 6.0 software to obtain the fitting curve of compound activity.
(§14) Fining compound IC50 from nonlinear regression equation:
(§15) Y=Min+(Max−Min)/(1+10^((LogIC50−X)*slope));
(§16) X: Logarithm of compound concentration; Y: luminous signal
(§17) As illustrated in examples, IC50 value is within the following range for the compound of the present invention: “A” represents “IC50≤50 nM”; “B” represents “50 nM<IC50<100 nM”.

Ba/F3-Δ19del/T790M/C797S = Ba/F3-Δ19del/T790M/C797S (Homo sapiens, UniProt P00533, T790M/C797S, cells depend on it, form not given); assay: Ba/F3-Δ19del/T790M/C797S cell proliferation assay (CellTiter Glo, 72 h); format: cell-based; settings: CTG, numeric values, read-out: BaF3 Δ19del/T790M/C797S IC50
Sequence of Ba/F3-Δ19del/T790M/C797S (P00533 with tags, fused parts or gaps DEL746-750/T790M/C797S, form open): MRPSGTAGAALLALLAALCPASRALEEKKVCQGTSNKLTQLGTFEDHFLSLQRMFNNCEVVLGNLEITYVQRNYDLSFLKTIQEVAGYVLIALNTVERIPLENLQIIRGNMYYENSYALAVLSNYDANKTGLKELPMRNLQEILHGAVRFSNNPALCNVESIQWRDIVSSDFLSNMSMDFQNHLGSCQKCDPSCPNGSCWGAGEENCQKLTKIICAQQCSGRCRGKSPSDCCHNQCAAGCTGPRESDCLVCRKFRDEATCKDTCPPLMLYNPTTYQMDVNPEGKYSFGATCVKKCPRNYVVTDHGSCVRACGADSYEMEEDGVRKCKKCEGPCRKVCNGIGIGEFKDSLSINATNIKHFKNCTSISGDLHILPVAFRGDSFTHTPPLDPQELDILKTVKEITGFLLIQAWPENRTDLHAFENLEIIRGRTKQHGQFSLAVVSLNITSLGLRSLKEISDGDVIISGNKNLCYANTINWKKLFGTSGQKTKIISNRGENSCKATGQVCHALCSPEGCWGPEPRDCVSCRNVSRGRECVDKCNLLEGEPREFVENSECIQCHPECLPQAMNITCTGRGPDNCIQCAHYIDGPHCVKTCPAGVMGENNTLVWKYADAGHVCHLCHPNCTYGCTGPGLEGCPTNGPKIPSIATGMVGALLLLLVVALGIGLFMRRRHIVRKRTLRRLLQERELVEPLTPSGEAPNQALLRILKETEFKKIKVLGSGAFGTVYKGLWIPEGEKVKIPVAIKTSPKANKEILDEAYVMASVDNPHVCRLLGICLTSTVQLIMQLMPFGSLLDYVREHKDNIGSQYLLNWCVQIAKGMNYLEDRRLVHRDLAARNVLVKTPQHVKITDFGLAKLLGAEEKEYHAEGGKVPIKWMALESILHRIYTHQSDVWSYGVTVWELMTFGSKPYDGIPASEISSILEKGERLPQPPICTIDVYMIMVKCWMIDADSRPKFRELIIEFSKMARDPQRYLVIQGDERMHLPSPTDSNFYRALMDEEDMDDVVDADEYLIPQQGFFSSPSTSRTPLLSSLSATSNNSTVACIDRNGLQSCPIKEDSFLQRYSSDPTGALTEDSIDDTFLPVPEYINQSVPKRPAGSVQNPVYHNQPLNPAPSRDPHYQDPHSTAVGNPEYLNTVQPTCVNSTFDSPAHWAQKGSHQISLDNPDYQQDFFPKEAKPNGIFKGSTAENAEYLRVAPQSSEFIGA
Procedure: as §1, §2, §3, §4, §5, §6, §7, §8, §9, §10, §11, §12, §13, §14, §15, §16, §17

[1] = tested on: A431 EGFR wild-type cell line; assay: A431 EGFR wild-type cell proliferation assay (CellTiter Glo, 72 h); format: cell-based; settings: Homo sapiens, A-431, CTG, read-out: A431 EGFR WT IC50
Procedure: as §1, §2, §3, §4, §5, §6, §7, §8, §9, §10, §11, §12, §13, §14, §15, §16, §17

Sequence of EGFR Δ19del/T790M/C797S (P00533 with tags, fused parts or gaps DEL746-750/T790M/C797S, form open): as above

COc1cc(N2CCN(C3CCCC3)CC2)c(-c2cnn(C)c2)cc1Nc1ncc(Br)c(Nc2ccc3nccnc3c2P(C)(C)=O)n1 [Compound 25, (6-((5-Bromo-2-((4-(4-cyclopentylpiperazine-1yl)-2-methoxy-5-(1-methyl-1H-pyrozole-4-yl)phenyl)amino)pyrimidin-4-yl)amino)quinoxalin-5-yl) dimethylphosphine oxide] gave an IC50 (EGFR Δ19del/T790M/C797S) of 0.3 nM, a GI50 (Ba/F3-L858R/T790M/C797S) of 4 nM and a GI50 (Ba/F3-Δ19del/T790M/C797S) of 2.5 nM. For the same molecule, the IC50 [1] was 107 nM.
Work on COc1cc(N2CCN(C3CCCC3)CC2)c(-c2cnn(C)c2)cc1Nc1ncc(Br)c(Nc2ccc(C)c(C)c2P(C)(C)=O)n1 [Compound 26, (6-((5-Bromo-2-((4-(4-cyclopentylpiperazine-1-yl)-2-methoxy-5-(1-methyl-1H-pyrazole-4-yl)phenyl)amino)pyrimidin-4-yl)amino)-2,3-dimethylphenyl)dimethylphoshine oxide] yielded an IC50 (EGFR Δ19del/T790M/C797S) of 0.2 nM, a GI50 (Ba/F3-L858R/T790M/C797S) of 2.8 nM and a GI50 (Ba/F3-Δ19del/T790M/C797S) of 4.6 nM. It also gave an IC50 [1] of 241 nM.
COc1cc(N2CCC(N3CCN(C)CC3)CC2)c(-c2cnn(C)c2)cc1Nc1ncc(Cl)c(Nc2ccc3nc(C4CC4)ccc3c2P(C)(C)=O)n1 [Compound 28, (6-((5-Chloro-2-((2-methoxy-5-(1-methyl-1H-pyrazol-4-yl)-4-(4-(4-methylpiperazine-1-yl)piperidine-1-yl)phenyl)amino)pyrimidin-4-yl)amino)-2-cyclopropylquinolin-5-yl)dimethylphosphine oxide] showed an IC50 (EGFR Δ19del/T790M/C797S) of 0.31 nM, a GI50 (Ba/F3-L858R/T790M/C797S) of 6.6 nM and a GI50 (Ba/F3-Δ19del/T790M/C797S) of 1 nM. It also gave an IC50 [1] of 201 nM.
